Key:
AURKA = biological target: T1, AURKA (Homo sapiens, UniProt O14965); experiment: cell-based; parameters: species or system HEK293T; NanoBRET tracer displacement in permeabilized cells, NanoLuc fusion protein, Tracer K10; settings: permeabilized cells; read-out: AURKA permeabilized (IC50±sd)/µM
T1 sequence (O14965 1-403): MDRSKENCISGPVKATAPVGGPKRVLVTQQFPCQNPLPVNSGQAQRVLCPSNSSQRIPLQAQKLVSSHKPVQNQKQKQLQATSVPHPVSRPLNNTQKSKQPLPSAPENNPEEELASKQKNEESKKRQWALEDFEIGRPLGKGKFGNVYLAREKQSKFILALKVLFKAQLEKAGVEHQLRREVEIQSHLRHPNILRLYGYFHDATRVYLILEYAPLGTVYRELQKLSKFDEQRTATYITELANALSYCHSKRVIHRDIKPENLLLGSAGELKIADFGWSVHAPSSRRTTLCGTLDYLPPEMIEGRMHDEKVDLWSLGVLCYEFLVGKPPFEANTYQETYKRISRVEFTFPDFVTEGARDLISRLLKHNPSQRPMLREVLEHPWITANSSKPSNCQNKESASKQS

full-length AAK1 = full-length AAK1 (Homo sapiens, UniProt Q2M2I8); experiment: cell-based; parameters: species or system HEK293T; NanoBRET tracer displacement in permeabilized cells, NanoLuc fusion protein, Tracer K10; settings: permeabilized cells; read-out: AAK1 permeabilized (IC50±sd)/µM
[1] = system: kinase expression levels in Jurkat cells; experiment: Label-free quantitative proteomics of kinase parent inhibitors; type: cell-based, human; settings: 6 h
Procedure: CO2. After incubation, the BRET signals were measured by a PHERAstar plate reader (BMG Labtech) following the same procedure as intact NanoBRET® measurement. Competitive displacement data were then normalized to controls and were plotted using GraphPad Prism 9 software employing a normalized 3-parameter curve fit with the following equation: […]
The effects of the compounds on cell viability was determined using the CellTiter-Glo® 2.0 Cell Viability Assay (Promega: G9241) following manufacturer’s protocol. Ten µL of Jurkat cells at […]
After equilibration, PROTACs were titrated at various concentrations using an Echo acoustic […]
volume of CellTiter-Glo® 2.0 reagent (10 µL) was added to each well and cells were incubated for 10 minutes at room temperature. Filtered luminescence was measured on a PHERAstar plate reader (BMG Labtech) and data was evaluated using GraphPad Prism 9 software employing a normalized curve it with the following equation: Y=Bottom + (Top-Bottom)/(1+10(LogEC50-X) *HillSlope).
Sample preparation. Jurkat cells (ATCC © HTB-22) were cultured in RPMI (Thermo:
Cells were seeded in 6 well plates (Greiner:
50 µl of SDS Lysis Buffer (2% SDS, 50 mM TRIS pH 8.5, 10 mM TCEP, 40 mM CAA) was added to each sample. Cells were transferred into low binding reaction tubes (Eppendorf: […]
Protein yield was determined by […]

[2] = biological target: T2, kinase protein levels in MCF-7 cells (Homo sapiens, UniProt Q9BTL3); experiment: TMT-labeled quantitative proteomics; type: cell-based; settings: protein FAM103A1; MCF7; 1 µM; set5
T2 construct: endogenous in cells; host or cells: MCF-7
T2 sequence (Q9BTL3 whole entry): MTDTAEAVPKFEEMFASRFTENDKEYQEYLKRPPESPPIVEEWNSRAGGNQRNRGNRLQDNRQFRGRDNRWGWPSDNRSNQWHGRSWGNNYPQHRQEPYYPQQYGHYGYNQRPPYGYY

Sequence of full-length AAK1 (Q2M2I8 whole entry, the tested form may be a part): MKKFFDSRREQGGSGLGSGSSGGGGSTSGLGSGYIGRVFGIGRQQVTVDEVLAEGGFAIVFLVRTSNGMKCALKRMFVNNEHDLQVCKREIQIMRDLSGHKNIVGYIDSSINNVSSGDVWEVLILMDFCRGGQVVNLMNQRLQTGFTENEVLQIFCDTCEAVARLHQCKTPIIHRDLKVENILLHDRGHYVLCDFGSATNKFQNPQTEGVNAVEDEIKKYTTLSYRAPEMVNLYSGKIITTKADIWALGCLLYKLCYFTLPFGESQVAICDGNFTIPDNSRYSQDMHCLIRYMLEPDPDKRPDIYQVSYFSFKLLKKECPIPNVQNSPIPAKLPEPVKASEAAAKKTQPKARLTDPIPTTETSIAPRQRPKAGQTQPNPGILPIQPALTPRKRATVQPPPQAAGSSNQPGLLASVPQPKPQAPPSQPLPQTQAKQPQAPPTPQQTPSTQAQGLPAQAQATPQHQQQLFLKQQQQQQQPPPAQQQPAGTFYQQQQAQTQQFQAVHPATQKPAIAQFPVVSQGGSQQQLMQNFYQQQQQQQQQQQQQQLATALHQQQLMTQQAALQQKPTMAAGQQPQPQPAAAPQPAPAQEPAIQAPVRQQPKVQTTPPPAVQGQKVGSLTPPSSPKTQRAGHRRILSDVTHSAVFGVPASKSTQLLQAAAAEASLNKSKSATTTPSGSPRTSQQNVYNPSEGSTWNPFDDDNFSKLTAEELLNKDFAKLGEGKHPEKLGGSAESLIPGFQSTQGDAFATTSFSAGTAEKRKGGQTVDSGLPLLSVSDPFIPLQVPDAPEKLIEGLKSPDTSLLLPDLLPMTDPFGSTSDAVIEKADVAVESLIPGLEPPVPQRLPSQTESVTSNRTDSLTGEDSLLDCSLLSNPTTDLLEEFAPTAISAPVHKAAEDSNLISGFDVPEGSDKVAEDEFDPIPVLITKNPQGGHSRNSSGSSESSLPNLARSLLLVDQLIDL

Structure (SMILES): Cc1ncsc1-c1ccc(CNC(=O)[C@@H]2C[C@H](O)CN2C(=O)[C@@H](NC(=O)CCOCCOCCOCCN2CCN(c3cc(Nc4cc(C5CC5)[nH]n4)nc(Nc4ccc(CC#N)cc4)n3)CC2)C(C)(C)C)cc1 [4-a^neg]
- IC50 (AURKA): 1.89 ± 0.025 µM
- IC50 (full-length AAK1): 0.04 ± 0.001 µM

Structure (SMILES): CCOC(=O)c1cc(Nc2cc(C3CC3)[nH]n2)nc(Nc2ccc(CC#N)cc2)n1 [compound 5]
- kinases with reduced protein levels ([1]; 0.25 μM): reduced protein levels of PLK1 and BUB1
- kinases with reduced protein levels ([1]; 2.5 μM): no additional kinases showed lower protein levels

Structure (SMILES): Cc1ncsc1-c1ccc(CNC(=O)[C@@H]2C[C@@H](O)CN2C(=O)[C@@H](NC(=O)CCCCCCN2CCN(c3ccc(Nc4ncc(Cl)c(Nc5ccccc5C(N)=O)n4)cc3)CC2)C(C)(C)C)cc1 [6-d]
- P.Value (compound/DMSO) [2]: 0.1981
- log2FC (compound/DMSO) [2]: -0.2114
